# Test results published in PubChem BioAssay (NCI).
#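 Protocol summary: plate cells (96-well), add compound at 5 concentrations, incubate 48 h, interpolate endpoints linearly. GI50: concentration for 50% inhibition of growth. The concentration for full growth arrest is given as TGI.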
# Legend:
# Assay in all cases: growth of human tumour cells (NCI), 48 h
# 786-0 renal = test system: 786-0 renal
# A498 renal = test system: A498 renal
# A549 NSCLC = test system: A549 NSCLC
# ACHN renal = test system: ACHN renal
# BT-549 breast = test system: BT-549 breast
# CAKI-1 renal = test system: CAKI-1 renal
# CCRF-CEM leukemia = test system: CCRF-CEM leukemia
# COLO 205 colon = test system: COLO 205 colon
# DU-145 prostate = test system: DU-145 prostate
# EKVX NSCLC = test system: EKVX NSCLC
# HCC-2998 colon = test system: HCC-2998 colon
# HCT-116 colon = test system: HCT-116 colon
# HCT-15 colon = test system: HCT-15 colon
# HL-60(TB) leukemia = test system: HL-60(TB) leukemia
# HOP-62 NSCLC = test system: HOP-62 NSCLC
# HOP-92 NSCLC = test system: HOP-92 NSCLC
# HS 578T breast = test system: HS 578T breast
# HT29 colon = test system: HT29 colon
# IGROV1 ovarian = test system: IGROV1 ovarian
# K-562 leukemia = test system: K-562 leukemia
# KM12 colon = test system: KM12 colon
# LOX IMVI melanoma = test system: LOX IMVI melanoma
# M14 melanoma = test system: M14 melanoma
# MALME-3M melanoma = test system: MALME-3M melanoma
# MCF7 breast = test system: MCF7 breast
# MDA-MB-231 breast = test system: MDA-MB-231 breast
# MDA-MB-435 = test system: MDA-MB-435
# MOLT-4 leukemia = test system: MOLT-4 leukemia
# NCI-H226 lung = test system: NCI-H226 lung
# NCI-H23 lung = test system: NCI-H23 lung
# NCI-H460 lung = test system: NCI-H460 lung
# NCI-H522 lung = test system: NCI-H522 lung
# NCI/ADR-RES ovarian = test system: NCI/ADR-RES ovarian
# OVCAR-3 ovarian = test system: OVCAR-3 ovarian
# OVCAR-4 ovarian = test system: OVCAR-4 ovarian
# OVCAR-5 ovarian = test system: OVCAR-5 ovarian
# OVCAR-8 ovarian = test system: OVCAR-8 ovarian
# PC-3 prostate = test system: PC-3 prostate
# RPMI-8226 leukemia = test system: RPMI-8226 leukemia
# RXF 393 renal = test system: RXF 393 renal
# SF-268 CNS = test system: SF-268 CNS
# SF-295 CNS = test system: SF-295 CNS
# SF-539 CNS = test system: SF-539 CNS
# SK-MEL-2 melanoma = test system: SK-MEL-2 melanoma
# SK-MEL-28 melanoma = test system: SK-MEL-28 melanoma
# SK-MEL-5 melanoma = test system: SK-MEL-5 melanoma
# SK-OV-3 ovarian = test system: SK-OV-3 ovarian
# SN12C renal = test system: SN12C renal
# SNB-19 CNS = test system: SNB-19 CNS
# SNB-75 CNS = test system: SNB-75 CNS
# SR leukemia = test system: SR leukemia
# SW-620 colon = test system: SW-620 colon
# T-47D breast = test system: T-47D breast
# TK-10 renal = test system: TK-10 renal
# U251 CNS = test system: U251 CNS
# UACC-257 melanoma = test system: UACC-257 melanoma
# UACC-62 melanoma = test system: UACC-62 melanoma
# UO-31 renal = test system: UO-31 renal
structure (smiles),measurement,setting,value
O=C(CCc1nnc2sc(-c3ccc(Cl)cc3Cl)nn12)c1nc2ncccc2[nH]1,GI50,786-0 renal,1810 nM
same,TGI,786-0 renal,3530 nM
same,GI50,A498 renal,1110 nM
same,TGI,A498 renal,2410 nM
same,GI50,A549 NSCLC,2780 nM
same,TGI,A549 NSCLC,10400 nM
same,GI50,ACHN renal,1540 nM
same,TGI,ACHN renal,2910 nM
same,GI50,BT-549 breast,1980 nM
same,TGI,BT-549 breast,4360 nM
same,GI50,CAKI-1 renal,1420 nM
same,TGI,CAKI-1 renal,3150 nM
same,GI50,CCRF-CEM leukemia,2680 nM
same,TGI,CCRF-CEM leukemia,9000 nM
same,GI50,COLO 205 colon,1930 nM
same,TGI,COLO 205 colon,4200 nM
same,GI50,DU-145 prostate,1920 nM
same,TGI,DU-145 prostate,3630 nM
same,GI50,EKVX NSCLC,2710 nM
same,TGI,EKVX NSCLC,7980 nM
same,GI50,HCC-2998 colon,1770 nM
same,TGI,HCC-2998 colon,3320 nM
same,GI50,HCT-116 colon,1300 nM
same,TGI,HCT-116 colon,2650 nM
same,GI50,HCT-15 colon,1640 nM
same,TGI,HCT-15 colon,4610 nM
same,GI50,HL-60(TB) leukemia,2910 nM
same,TGI,HL-60(TB) leukemia,12800 nM
same,GI50,HOP-62 NSCLC,2180 nM
same,TGI,HOP-62 NSCLC,6770 nM
same,GI50,HOP-92 NSCLC,1190 nM
same,TGI,HOP-92 NSCLC,2600 nM
same,GI50,HS 578T breast,2710 nM
same,TGI,HS 578T breast,8020 nM
same,GI50,HT29 colon,2930 nM
same,TGI,HT29 colon,11800 nM
same,GI50,IGROV1 ovarian,1820 nM
same,TGI,IGROV1 ovarian,3800 nM
same,GI50,K-562 leukemia,2440 nM
same,TGI,K-562 leukemia,> 100000 nM
same,GI50,KM12 colon,1830 nM
same,TGI,KM12 colon,3560 nM
same,GI50,LOX IMVI melanoma,1690 nM
same,TGI,LOX IMVI melanoma,3080 nM
same,GI50,M14 melanoma,3350 nM
same,TGI,M14 melanoma,16500 nM
same,GI50,MALME-3M melanoma,1850 nM
same,TGI,MALME-3M melanoma,4100 nM
same,GI50,MCF7 breast,2590 nM
same,TGI,MCF7 breast,> 100000 nM
same,GI50,MDA-MB-231 breast,1740 nM
same,TGI,MDA-MB-231 breast,4360 nM
same,GI50,MDA-MB-435,1750 nM
same,TGI,MDA-MB-435,3680 nM
same,GI50,MOLT-4 leukemia,1150 nM
same,TGI,MOLT-4 leukemia,60800 nM
same,GI50,NCI-H226 lung,1700 nM
same,TGI,NCI-H226 lung,3660 nM
same,GI50,NCI-H23 lung,1760 nM
same,TGI,NCI-H23 lung,4410 nM
same,GI50,NCI-H460 lung,1890 nM
same,TGI,NCI-H460 lung,3640 nM
same,GI50,NCI-H522 lung,1900 nM
same,TGI,NCI-H522 lung,4490 nM
same,GI50,NCI/ADR-RES ovarian,2710 nM
same,TGI,NCI/ADR-RES ovarian,9120 nM
same,GI50,OVCAR-3 ovarian,1520 nM
same,TGI,OVCAR-3 ovarian,3100 nM
same,GI50,OVCAR-4 ovarian,1920 nM
same,TGI,OVCAR-4 ovarian,4260 nM
same,GI50,OVCAR-5 ovarian,2330 nM
same,TGI,OVCAR-5 ovarian,5290 nM
same,GI50,OVCAR-8 ovarian,3440 nM
same,TGI,OVCAR-8 ovarian,> 100000 nM
same,GI50,PC-3 prostate,1630 nM
same,TGI,PC-3 prostate,3630 nM
same,GI50,RPMI-8226 leukemia,1800 nM
same,TGI,RPMI-8226 leukemia,7590 nM
same,GI50,RXF 393 renal,1800 nM
same,TGI,RXF 393 renal,3340 nM
same,GI50,SF-268 CNS,3990 nM
same,TGI,SF-268 CNS,21400 nM
same,GI50,SF-295 CNS,1830 nM
same,TGI,SF-295 CNS,3440 nM
same,GI50,SF-539 CNS,1960 nM
same,TGI,SF-539 CNS,3980 nM
same,GI50,SK-MEL-2 melanoma,2590 nM
same,TGI,SK-MEL-2 melanoma,7270 nM
same,GI50,SK-MEL-28 melanoma,2440 nM
same,TGI,SK-MEL-28 melanoma,5650 nM
same,GI50,SK-MEL-5 melanoma,1700 nM
same,TGI,SK-MEL-5 melanoma,3090 nM
same,GI50,SK-OV-3 ovarian,21500 nM
same,TGI,SK-OV-3 ovarian,58000 nM
same,GI50,SN12C renal,1990 nM
same,TGI,SN12C renal,4920 nM
same,GI50,SNB-19 CNS,3530 nM
same,TGI,SNB-19 CNS,16700 nM
same,GI50,SNB-75 CNS,459 nM
same,TGI,SNB-75 CNS,3790 nM
same,GI50,SR leukemia,1900 nM
same,TGI,SR leukemia,> 100000 nM
same,GI50,SW-620 colon,1560 nM
same,TGI,SW-620 colon,3680 nM
same,GI50,T-47D breast,1470 nM
same,TGI,T-47D breast,5030 nM
same,GI50,TK-10 renal,2530 nM
same,TGI,TK-10 renal,5160 nM
same,GI50,U251 CNS,1920 nM
same,TGI,U251 CNS,3670 nM
same,GI50,UACC-257 melanoma,3000 nM
same,TGI,UACC-257 melanoma,9010 nM
same,GI50,UACC-62 melanoma,1650 nM
same,TGI,UACC-62 melanoma,3310 nM
same,GI50,UO-31 renal,1130 nM
same,TGI,UO-31 renal,2330 nM
